Test results taken from patent US8080237B2, “Use of tellurium compounds for protection from ultra-violet radiation” (priority 2005, dated 2011).
Like-named read-outs stand apart in the source and are kept apart here.

Columns and labels:
[1] = test system: rats; assay: Toxicity tests (LD50) in rats; type: in vivo; details: intravenous and intramuscular administration
[2] = test system: interferon (IFN); details: mice; J. Natl. Cancer Inst. 88(18):1276-84, 1996; cited from earlier work
[3] = test system: interferon (IFN); details: humans; Nat. Immun. Cell Growth Regul. 9(3):182-90, 1990; Immunology 70(4):473-7, 1990; cited from earlier work
[4] = test system: IL-10 gene expression in epidermal cells; assay: RT-PCR for IL-10 transcripts in epidermal cells from suction blisters after in vivo UVB irradiation of volunteers' forearms; parameters: species or system human; details: 3% AS101 in petroleum jelly U.S.P., topical on forearm before UVB; blisters 24 h after UVB exposure; compared with UVB alone; G3PDH as control transcript
Procedure: In normal volunteers, suction blisters were induced by vacuum and heat on normal skin, or on UVB-irradiated skin of volar forearms 24 h after exposure. Single cell suspensions of epidermal cells were prepared by limited trypsinization of the blister roof. Briefly, epidermal sheets were washed in PBS (Biofluids. Roekville. MD) and floated in 0.5% trypsin (United Stares Biochemical Corp. Cleveland. OH) for 45 min al 37° C., transferred to HBSS (Biofluids) containing 0.05 DNase (Sigma Chemical Co. SI. Louis. MO) and 10% heat-inactivated pooled human AB^+ serum (Sigma Chemical Co.) and disaggregated by repeated aspirations and expulsions through a syringe. […]
UVB irradiation in vivo was performed with 4 FS20 fluorescent lamps (Sylvania. Springfield. Va.) that emit wavelengths between 280 and 320 nm with a peak at 313 nm. Light intensity was determined using an IL-770 Germicidal-Erythemal radiometer (international Light Inc. Newburyport. Me.) equipped with a sensor and a 313-nm filter. […]
The frozen pellets of epidermal cells were dissolved by repeated pipetting 800 μl of lysis bufer and transferred to RNase-free Eppendorf tubes containing 500 μg of superparamagnetic polystyrene Dynaheads Oligo(dT)25 (Dynal. Great Neck. N.Y.). […] The concentration of mRNA was measured on a Beckman DU-64 spectrophotometer employing a 5 μl Ultra microcell. […]

[5] = test system: IL-10; details: Cell Immunol. 176(2):180-5, 1997; J. Natl. Cancer Inst. 88(18):1276-84, 1996; cited from earlier work

Cl[TeH]1(Cl)(Cl)OCCO1.N [AS101, ammonium trichloro(dioxyethylene-O,O′)tellurate]
LD50 relative to the immunologically effective dose [1]: 500-1000 folds
activation of interferon (IFN) [2]: potent activator of interferon
activation of interferon (IFN) [3]: potent activator of interferon
IL-10 transcription in epidermal cells after UVB (RT-PCR, FIG. 1) [4]: significant decrease of IL-10
effect on IL-10 at the m-RNA level [5]: inhibit IL-10 at the m-RNA level
